# From patent US20040002477A1, “Erectile dysfunction remedies containing prostaglandin derivatives as the active ingredient” (priority 2000, published 2004)
# Experiments:
# corpus cavernosum = assay: Corpus cavernosum relaxation activity in cats (norepinephrine-contracted isolated tissue, Magnus tube); format: cell-based; settings: cat corpus cavernosum; for Corpus cavernosum relaxation rate: 10 μM norepinephrine contraction = 100%, Means ± SE
# Method: Under anesthesia with urethane, penis of five cats (hybrid, weight about 3.5 kg) was removed. In the krebs solution, a corpus cavernosum was isorated, quartered and suspended with the tention of 200 mg in the Magnus tube. 10 μM norepinephrine was added and the tissue was constricted. Then the stable contraction was checked. After the addition of norepinephrine, (5Z, 9β, 11α, 13E)-17,17-propano-11,16-dihydroxy-9-chloro-20-norprosta-5,13-dienic acid·lysine salt (compound A) and (5Z, 9β, 11α, 13E)-17,17-propano-11,16-dihydroxy-9-chloroprosta-5,13,19-trienic acid (compound B), which are the compounds of the formula (I), were added respectively and the changes of the contraction were measured. As controls, PGE1 and 19-hydroxy-PGE2 were used. Each compounds were disolved in DMSO and used. The contraction induced by 10 μM norepinephrine was considered as 100% and the percentages of the relaxation rate were calculated.
# human corpus cavernosum = assay: Corpus cavernosum relaxation activity in human (noradrenalin-contracted isolated tissue, Magnus tube); format: cell-based; settings: for Corpus cavernosum relaxation rate: 10 μM noradrenalin contraction = 100%, added cumulatively, Means ± SE
# Method: The samples of the human corpus cavernosum taken at the time of operative treatment in agreement of the patient were suspended with the tention of 500 mg in the Magnus tube fulled by glucose-added Krebs buffer. The 10^−5M (10 μM) noradrenalin-induced contraction reaction, acetylcholine-induced relaxation reaction and electrostimulation(EFS)-induced contraction reaction were checked and the samples responded normaly were used in the experiment. It was reconstricted by 10 μM noradrenalin, the compound A used in the present invention of the formula (I) (n=4), the compound B used in the present invention of the formula (I) (n=5) or PGE1 (n=5), which were disolved by DMSO, were added cumulatively and the relaxation reacton was recorded on the chart. The contraction induced by 10 μM noradrenaline was concidered as 100% and the percentage of the relaxation rate was calculated.
# [1] = rat, in vivo, iv
# Method: It has been confirmed that the compounds used in the present invention of the formula (I) have sufficiently low toxicity and are sufficiently safe for use as pharmaceutical preparations. For example, the maximal tolerated dose of the compound A (lysine salts) in the compound of the formula (I) was 30 mg/kg weight or more for rat intravenous administration.
molecule,measurement,setting,value
"CCC1(C(O)C/C=C/C2C(O)CC(Cl)C2C/C=C\CCCC(=O)O)CCC1.NCCCC[C@H](N)C(=O)O (stereo not drawn) [Compound A, (5Z, 9β, 11α, 13E)-17,17-propano-11,16-dihydroxy-9-chloro-20-norprosta-5,13-dienic acid·lysine salt]",Intensity of relaxation compared with PGE1,corpus cavernosum,at the same level as PGE1
same,"Relaxation of corpus cavernosum, dose dependence",corpus cavernosum,dose-dependent relaxasions
same,Corpus cavernosum relaxation rate,corpus cavernosum; dose 0.1 μM,26.8 ± 4.2%
same,Corpus cavernosum relaxation rate,corpus cavernosum; dose 1.0 μM,35.2 ± 2.8%
same,Potency relative to PGE1,human corpus cavernosum,1.6 times
same,Corpus cavernosum relaxation rate,human corpus cavernosum; dose 1.0 μM,29.9 ± 13.7%
same,Corpus cavernosum relaxation rate,human corpus cavernosum; dose 10 μM,44.5 ± 12.6%
same,Maximal tolerated dose,[1],≥ 30 mg/kg weight
"CCCCC[C@H](O)/C=C/[C@H]1[C@H](O)CC(=O)[C@@H]1CCCCCCC(=O)O [PGE1, prostaglandin E1, reference compound]",Corpus cavernosum relaxation rate,corpus cavernosum; dose 0.1 μM,21.3 ± 2.3%
same,Corpus cavernosum relaxation rate,corpus cavernosum; dose 1.0 μM,35.5 ± 5.0%
same,Corpus cavernosum relaxation rate,human corpus cavernosum; dose 1.0 μM,16.8 ± 7.2%
same,Corpus cavernosum relaxation rate,human corpus cavernosum; dose 10 μM,27.9 ± 8.8%
"C=CCC1(C(O)C/C=C/[C@@H]2[C@@H](C/C=C\CCCC(=O)O)[C@H](Cl)C[C@H]2O)CCC1 (stereo partly drawn) [Compound B, (5Z, 9β, 11α, 13E)-17,17-propano-11,16-dihydroxy-9-chloroprosta-5,13,19-trienic acid]",Intensity of relaxation compared with PGE1,corpus cavernosum,at the same level as PGE1
same,"Relaxation of corpus cavernosum, dose dependence",corpus cavernosum,dose-dependent relaxasions
same,Corpus cavernosum relaxation rate,corpus cavernosum; dose 0.1 μM,18.1 ± 4.8%
same,Corpus cavernosum relaxation rate,corpus cavernosum; dose 1.0 μM,36.8 ± 4.2%
same,Potency relative to PGE1,human corpus cavernosum,1.6 times
same,Corpus cavernosum relaxation rate,human corpus cavernosum; dose 1.0 μM,25.0 ± 4.4%
same,Corpus cavernosum relaxation rate,human corpus cavernosum; dose 10 μM,45.3 ± 4.5%
19-hydroxy-PGE2 [reference compound],Corpus cavernosum relaxation rate,corpus cavernosum; dose 0.3 μM,20.0 ± 4.2%
same,Corpus cavernosum relaxation rate,corpus cavernosum; dose 1.0 μM,27.2 ± 4.7%
